Reference: US6803466B1, “HIV/FIV protease inhibitors having a small P3 residue” (The Scripps Research Institute, priority 1997, dated 2004)

Key:
[1] = biological target: T1, HIV PR V82F (Human immunodeficiency virus type 1 group M subtype B, UniProt P03366, V582F); details: licensed drugs, literature; cited from earlier work
T1 construct: drug-resistant mutant HIV PRs G48V and V82F

[2] = biological target: T2, HIV PR G48V (Human immunodeficiency virus type 1 group M subtype B, UniProt P03366, G548V); details: licensed drugs, literature; cited from earlier work
T2 construct: drug-resistant mutant HIV PRs G48V and V82F

[3] = biological target: T3, HIV PR (Human immunodeficiency virus type 1 group M subtype B, UniProt P03366, Q507K); assay: Inhibition of HIV PR (Ki, IC50), fluorogenic substrate; format: biochemical
T3 construct: initiator Met plus the eight Pol residues preceding PR (N-terminal extension of the expressed precursor) (N); made in house; host or cells: E. coli BL21.DE3, pLysS
Procedure: The solution was mixed and incubated over 5 minutes during which time the rate of substrate cleavage was monitored by continuously recording the change in fluorescence of the assay solution. An excitation filter of 325 nm, and an emission filter of 420 nm were used.
Determination of Ki for HIV protease was performed similarly with the following modifications. The substrate concentrations used were 57, 43, 28 and 14 μM. All other concentrations were as above. The curve fit for the data was determined and the subsequent Ki derived using a computer program based on the equation of Morrison et. al. BioChim. Biophys. ACTA 1969,185, 269, for tight binding inhibitors.
(§1) Kinetic determinations for both HIV PR and FIV PRs were performed at 37° C. at pH 5.25 in duplicate using F-2000 fluorescence spectrophotometer (Hitachi).
For HIV PR, the KM and Vmax values for the fluorogenic peptide substrate 2-aminobenzoyl (Abz)-Thr-Ile-Nle-Phe-(p-NO2)-Gln-Arg-NH2 (SEQ ID NO: 3) Toth et al Int. J. Peptide Res. 36, 544-550 were determined by measuring the initial rate of hydrolysis at different substrate concentrations (5.0, 7.5, 10, 20, 35, 50, 100, and 200 μM) by monitoring the change in fluorescence at an excitation wavelength of 325 nm and an emission wavelength of 420 nm, and fitting the obtained data to the Michaelis-Menten equation using the Grafit program (version 3.0, Erithacus Software Ltd., UK). Assays were run in 0.1 M MES buffer, containing 5% (v/v) glycerol, and 5% (v/v) DMSO (200 μl final volume). The enzyme concentration (30 μg/ml) which gave ideal progress curve was used for assays, but the dimeric active HIV PR concentration was not accurately determined. […] The curve fit the data was determined, and the subsequent Ki was derived using the Grafit program.

[4] = biological target: T4, FIV PR (Feline immunodeficiency virus, UniProt P16088, C122K/G43I/N93T); assay: Inhibition of FIV PR (Ki, IC50); format: biochemical
T4 construct: made in house; host or cells: E. coli BL21(DE3)
Procedure: The solution was mixed and incubated for 10 minutes at 37° C. and the reaction quenched by addition of 8M guanidine HCl solution containing 0.2 M sodium acetate at pH 4.2 (100 μL). The cleavage products and substrate were separated by reverse phase HPLC. Absorbance was measured at 215 nm, peak areas were determined and percent conversion to product was calculated using relative peak areas. […] IC50 was determined as the inhibitor concentration at 50% inhibition. […] ([S]=substrate concentration in nmol). The data used was generated similarly to that for Ki with the following modifications. The substrate concentrations used were 560, 448, 336, 224, 111 and 56 μM, in the absence of inhibitor.
as §1
(§2) For FIV PRs, the kinetic data were determined under the similar reaction conditions as for HIV PR.

[5] = system: FIV-PPR in feline T-cells (104-C1); assay: Ex vivo inhibitor analysis against FIV, pelletable reverse transcriptase in culture supernatant; format: cell-based, feline immunodeficiency virus
Procedure: For FIV, the assays were performed in FIV-infected feline T-cells which were cultured in the presence of compound 1200 at different concentrations over the course of 1 month. Each data in FIG. 14 represents the amount of pelletable FIV reverse transcriptase in the culture supernatant. […] After one month, the drug-treated cultures were split and replated with and without compound 1200.
The lymphocytic cell line 104-C1 (provided by C. Grant) was used as the target for infection. Cells were cultured in RPMI-1640 media supplemented with 10% FBS, 200 μM L-Glutamine, 1×MEM-Vitamins, 100 μM Sodium Pyruvate, 1×Non-Essential Amino Acids, 5.5×10−5M b-ME, 50 μg/ml Gentamicin, 50 U/ml human recombinant Interleukin-2 (provided by Hoffmann-LaRoche) and 7.5 μg/ml Concanavalin-A. For inhibitor assessment, 5×10^6 cells were infected with FIV-PPR (4×105 RT units) in 1 mL culture for 2 hr at 37° C. […] The cells were then washed with Hanks-buffered saline solution (HBSS) and resuspended in 10 ml of complete medium. The compound 1200 (10 mg/mL in DMSO) was then added to final concentrations of 0.1, 0.5, 1, and 5 μg/ml in duplicate. The cells were then incubated at 37° C. The culture supernatants were monitored for the presence of pelletable reverse transcriptase activity at weekly intervals, as follows. Cell-free culture supernatants (4 ml) were centrifuged at 60K for 30 min and the pellets were resuspended in 100 μl of lysis buffer containing 40 mM TrisHCl (pH 8.1), 360 mM NaCl, 20 mM DTT and 0.2% NP40. Twenty five μl of lysate was added to 25 μl of a mixture containing polyrA-pdT (Pharmacia, Piscataway, N.J.), MgCl2, and 3H-labeled deoxythymidine 5′-triphosphate (DuPont NEN, Boston, Mass.), and incubated for 1 hr at 37° C. The mixture was spotted on DE81 paper, air-dried, fixed in 0.1 M sodium pyrophosphate, washed three times in 0.3 M ammonium formate, and an additional time in 95% ethanol. The paper was then dried and counted on a scintillation counter.
Cells were split 1:5 after the second, third, and fourth time points and fresh inhibitor was added at the appropriate concentration at each of these intervals. The data were expressed as values +/−standard deviation of the mean.

[6] = biological target: T4, FIV PR; details: relative to HIV PR; Slee et al.; cited from earlier work
[7] = system: mutant FIV PRs (FIV(V59I), FIV(Q99V)); assay: Inhibition of mutant FIV PRs; format: biochemical, feline immunodeficiency virus
Procedure: The inhibitory effects of each inhibitor were evaluated against HIV and FIV PRs along with two mutant FIV PRs that contain amino acid substitutions corresponding to those in HIV PR at homologous sites.
as §2
Mutant FIV PRs were prepared that contained substitutions of HIV residues noted to be associated with drug resistance in HIV (16) at equivalent sites in the three dimensional structure.

For `CC(C)(C)NC(=O)[C@@H]1CN(Cc2cccnc2)CCN1C[C@@H](O)C[C@@H](Cc1ccccc1)C(=O)N[C@H]1c2ccccc2C[C@H]1O` [MK-639], the “higher IC50 / less sensitive, V82F mutant compared to wild-type HIV PR” value [1] is given as 7 fold.
For `CC(C)c1nc(CN(C)C(=O)N[C@H](C(=O)N[C@@H](Cc2ccccc2)C[C@H](O)[C@H](Cc2ccccc2)NC(=O)OCc2cncs2)C(C)C)cs1` [ABT-538], the “higher IC50 / decreased potency, G48V mutant compared to wild-type HIV PR” value [2] is given as 17 fold and the “higher IC50 / less sensitive, V82F mutant compared to wild-type HIV PR” value [1] is given as 90 fold.
With `CC(C)[C@H](NC(=O)[C@H](CO)NC(=O)OCc1ccccc1)C(=O)N[C@@H](Cc1ccccc1)[C@@H](O)[C@H](O)[C@H](Cc1ccccc1)NC(=O)[C@@H](NC(=O)[C@H](CO)NC(=O)OCc1ccccc1)C(C)C` [Compound 12] the Ki [3] was 0.58 nM, the “inhibition of HIV PR (in words)” value [3] was “effective inhibitors” and the “higher potency against HIV PR compared to 1b” value ([3]; versus 1b) was 3 fold. The Ki [4] was 32 nM, the “inhibition of FIV PR (in words)” value [4] was “effective inhibitors” and the “prevention of FIV infection in tissue culture (in words)” value [5] was “not as effective as 1b”.
For `CC(C)(C)NC(=O)[C@@H]1C[C@@H]2CCCC[C@@H]2CN1C[C@@H](O)[C@H](Cc1ccccc1)NC(=O)[C@H](CC(N)=O)NC(=O)c1ccc2ccccc2n1` [RO31-8959, reference compound], the “higher IC50 / decreased potency, G48V mutant compared to wild-type HIV PR” value [2] is given as 27 fold, the “less efficient inhibitor of FIV PR, factor” value [6] is given as ≥ 100 and the Ki [3] is given as 1.6 nM. For the same molecule, the Ki [4] was 76000 nM and the “inhibition of FIV PR (in words)” value [4] was “total loss of potency”.
For `CC(C)[C@H](NC(=O)[C@H](Cc1ccccc1)NC(=O)OCc1ccccc1)C(=O)N[C@@H](Cc1ccccc1)[C@@H](O)[C@H](O)[C@H](Cc1ccccc1)NC(=O)[C@@H](NC(=O)[C@H](Cc1ccccc1)NC(=O)OCc1ccccc1)C(C)C` [Compound 10b], the Ki [4] was 7000 nM, the “lower potency than 1b against FIV PR” value ([4]; versus 1b) was 170 fold and the “lower potency compared to 1100, FIV PR” value ([4]; versus 1100) was 45 fold. The “Ki higher / potency lower than 1200, FIV PR” value ([4]; versus 1200) was 170 fold and the “activity against mutant FIV PRs compared to wild type FIV PR (in words)” value [7] was “very similar activities”.
In the case of `Cc1c(O)cccc1C(=O)N[C@@H](CSc1ccccc1)[C@H](O)CN1C[C@H]2CCCC[C@H]2C[C@H]1C(=O)NC(C)(C)C` [AG-1343], the “higher IC50 / less sensitive, V82F mutant compared to wild-type HIV PR” value [1] is given as 15 fold.
